Measurements reported in PubChem BioAssay AID1918941 (Molecular Pharmacology Branch, DTP, NCI, 2023).
Where “and” joins values, the source holds several entries; their conditions need not be identical. Equal entries are not always repeated. Values belong to the compound of their own block, whether it stands above or below them.

Test system: SW 1271 complex spheroids, viability
Assay: Anticancer human tumor SW 1271 cell line growth inhibition [LSD1];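 note: spheroids exposed to agents for 7 days before luminescence read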;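 for viability, T/C: 100% = DMSO vehicle control viability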
Settings: for viability, T/C: stronger effect = lower value
In short: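 Drug combinations with the LSD1 inhibitor iadademstat tested on tumor cells co-cultured as spheroids with endothelial cells and mesenchymal stem cells. Concentrations descended in half-log increments from clinical Cmax or 10 microM.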

[1] = curve of first compound, second compound 0.1 µM
[2] = curve of first compound, second compound 0.316 µM
[3] = curve of first compound, second compound 1 µM
[4] = curve of first compound, second compound 3.16 µM
[5] = curve of first compound, second compound 10 µM

SMILES: O=C(c1cc(Cc2n[nH]c(=O)c3ccccc23)ccc1F)N1CCN(C(=O)C2CC2)CC1 + NC1CC1c1ccc(-c2cccc(O)c2)cc1
- IC50 [1]: 8.95 µM
- IC50 [2]: 5.66 µM
- IC50 [3]: 6.29 µM
- IC50 [4]: 3.74 µM
- IC50 [5]: > 10 µM
- viability, T/C (second compound 0.1 µM, first compound 0.0316 µM): 78.1%
- viability, T/C (second compound 0.1 µM, first compound 0.1 µM): 87%
- viability, T/C (second compound 0.1 µM, first compound 0.316 µM): 92.7%
- viability, T/C (second compound 0.1 µM, first compound 1 µM): 72.9%
- viability, T/C (second compound 0.1 µM, first compound 3.16 µM): 61.4%
- viability, T/C (second compound 0.1 µM, first compound 10 µM): 48.2%
- viability, T/C (second compound 0.316 µM, first compound 0.0316 µM): 84.5%
- viability, T/C (second compound 0.316 µM, first compound 0.1 µM): 76.1%
- viability, T/C (second compound 0.316 µM, first compound 0.316 µM): 78%
- viability, T/C (second compound 0.316 µM, first compound 1 µM): 67.5%
- viability, T/C (second compound 0.316 µM, first compound 3.16 µM): 54.9%
- viability, T/C (second compound 0.316 µM, first compound 10 µM): 44.1%
- viability, T/C (second compound 1 µM, first compound 0.0316 µM): 81.4%
- viability, T/C (second compound 1 µM, first compound 0.1 µM): 74.4%
- viability, T/C (second compound 1 µM, first compound 0.316 µM): 70%
- viability, T/C (second compound 1 µM, first compound 1 µM): 65.1%
- viability, T/C (second compound 1 µM, first compound 3.16 µM): 56.8%
- viability, T/C (second compound 1 µM, first compound 10 µM): 45.4%
- viability, T/C (second compound 3.16 µM, first compound 0.0316 µM): 72.1%
- viability, T/C (second compound 3.16 µM, first compound 0.1 µM): 63.4%
- viability, T/C (second compound 3.16 µM, first compound 0.316 µM): 68.3%
- viability, T/C (second compound 3.16 µM, first compound 1 µM): 58.4%
- viability, T/C (second compound 3.16 µM, first compound 3.16 µM): 52.9%
- viability, T/C (second compound 3.16 µM, first compound 10 µM): 38.9%
- viability, T/C (second compound 10 µM, first compound 0.0316 µM): 66.9%
- viability, T/C (second compound 10 µM, first compound 0.1 µM): 66.8%
- viability, T/C (second compound 10 µM, first compound 0.316 µM): 63%
- viability, T/C (second compound 10 µM, first compound 1 µM): 57.9%
- viability, T/C (second compound 10 µM, first compound 3.16 µM): 52.7%
- viability, T/C (second compound 10 µM, first compound 10 µM): 51.3%

- IC50 (curve of compound): > 10 µM and 3.98 µM
SMILES: CC1COCCN1c1cc(C2(S(C)(=N)=O)CC2)nc(-c2ccnc3[nH]ccc23)n1 (centres undefined)
- viability, T/C (compound 0.0316 µM): 106% and 85.9%
- viability, T/C (compound 0.1 µM): 97% and 88.6%
- viability, T/C (compound 0.316 µM): 88.2% and 78.9%
- viability, T/C (compound 1 µM): 79% and 65.3%
- viability, T/C (compound 3.16 µM): 62% and 54.3%
- viability, T/C (compound 10 µM): 62.1% and 39.4%

- IC50 (curve of compound): < 0.000316 µM
SMILES: CC(C)CC(NC(=O)C(Cc1ccccc1)NC(=O)c1cnccn1)B(O)O (centres undefined)
- viability, T/C (compound 0.000316 µM): 1.55% and 4.22%
- viability, T/C (compound 0.001 µM): 0.42% and 0.29%
- viability, T/C (compound 0.00316 µM): 0.34% and 0.36%
- viability, T/C (compound 0.01 µM): 0.16% and 0.3%
- viability, T/C (compound 0.0316 µM): 0.16% and 0.18%
- viability, T/C (compound 0.1 µM): 0.24% and 0.23%

SMILES: CCc1c2c(nc3ccc(O)cc13)-c1cc3c(c(=O)n1C2)COC(=O)[C@]3(O)CC + NC1CCC(NC2CC2c2ccccc2)CC1
- IC50 [1]: 0.00354 µM
- IC50 [2]: 0.0017 µM
- IC50 [3]: 0.00354 µM
- IC50 [4]: 0.00236 µM
- IC50 [5]: 0.00183 µM
- viability, T/C (second compound 0.1 µM, first compound 0.000949 µM): 59.3%
- viability, T/C (second compound 0.1 µM, first compound 0.003 µM): 53.9%
- viability, T/C (second compound 0.1 µM, first compound 0.00949 µM): 26.8%
- viability, T/C (second compound 0.1 µM, first compound 0.03 µM): 8.08%
- viability, T/C (second compound 0.1 µM, first compound 0.0949 µM): 5.77%
- viability, T/C (second compound 0.1 µM, first compound 0.3 µM): 5.6%
- viability, T/C (second compound 0.316 µM, first compound 0.000949 µM): 57.5%
- viability, T/C (second compound 0.316 µM, first compound 0.003 µM): 42.2%
- viability, T/C (second compound 0.316 µM, first compound 0.00949 µM): 26%
- viability, T/C (second compound 0.316 µM, first compound 0.03 µM): 9.7%
- viability, T/C (second compound 0.316 µM, first compound 0.0949 µM): 8.55%
- viability, T/C (second compound 0.316 µM, first compound 0.3 µM): 3.31%
- viability, T/C (second compound 1 µM, first compound 0.000949 µM): 56.9%
- viability, T/C (second compound 1 µM, first compound 0.003 µM): 52.8%
- viability, T/C (second compound 1 µM, first compound 0.00949 µM): 31.5%
- viability, T/C (second compound 1 µM, first compound 0.03 µM): 8.11%
- viability, T/C (second compound 1 µM, first compound 0.0949 µM): 5.83%
- viability, T/C (second compound 1 µM, first compound 0.3 µM): 3.46%
- viability, T/C (second compound 3.16 µM, first compound 0.000949 µM): 57.8%
- viability, T/C (second compound 3.16 µM, first compound 0.003 µM): 46.5%
- viability, T/C (second compound 3.16 µM, first compound 0.00949 µM): 26.4%
- viability, T/C (second compound 3.16 µM, first compound 0.03 µM): 7.18%
- viability, T/C (second compound 3.16 µM, first compound 0.0949 µM): 5.59%
- viability, T/C (second compound 3.16 µM, first compound 0.3 µM): 19.2%
- viability, T/C (second compound 10 µM, first compound 0.000949 µM): 52.4%
- viability, T/C (second compound 10 µM, first compound 0.003 µM): 48%
- viability, T/C (second compound 10 µM, first compound 0.00949 µM): 27.9%
- viability, T/C (second compound 10 µM, first compound 0.03 µM): 7.16%
- viability, T/C (second compound 10 µM, first compound 0.0949 µM): 5.27%
- viability, T/C (second compound 10 µM, first compound 0.3 µM): 3.36%
